Laboratory results taken from patent publication US20160095343A1, “Synbiotic Product” (Tate & Lyle Ingredients Americas LLC, priority 2010, published 2016).

Legend:
Type in all cases: cell-based
B. licheniformis = test: Growth of probiotic Bacillus on prebiotic carbohydrates (Example 1); details: carbohydrate at 10 g/L
Method: (§1) Four commercial spore-forming probiotic Bacillus strains were grown on prebiotic carbohydrates at 10 g/L. (See FIG. 1). The four strains were B. pumilus, B. licheniformis, B. subtilis, and B. coagulans. The prebiotic carbohydrates were high molecular weight arabinoxylan (AX), xylose (X), soluble fiber dextrin (waxy) (SFDw), soluble corn fiber (85) (SCF), and polydextrose (PDX). As a measure of the significance of the data shown in FIG. 1, Table 1 indicates P values for the B. coagulans data.

B. pumilus = test: as above; details: carbohydrate at 10 g/L
Method: as §1

B. coagulans = test: as above; details: carbohydrate at 10 g/L
Method: as §1

B. subtilis = test: as above; details: carbohydrate at 10 g/L
Method: as §1

[1] = test system: B. coagulans strain GBI-30; test: Comparison of maximum growth of B. coagulans on various carbohydrates (Example 2); details: carbohydrate at ~10 g/L, against no added carbohydrates
From the text: The maximum growth of probiotic B. coagulans strain GBI-30 (ATCC Designation Number PTA-6086; U.S. Pat. No. 6,849,256) (Ganeden Biotech, Inc.; Mayfield Heights, Ohio) was compared on the carbohydrates arabinoxylan, xylose, and dextrose at ˜10 g/L and against addition of no carbohydrates (FIG. 2).

Compound: O=C[C@H](O)[C@@H](O)[C@H](O)CO [xylose]
- growth of B. licheniformis on the prebiotic carbohydrate (B. licheniformis): limited growth
- growth of B. pumilus on the prebiotic carbohydrate (B. pumilus): did not appear able to grow
- growth of B. coagulans on the prebiotic carbohydrate (B. coagulans): grew
- growth of B. subtilis on the prebiotic carbohydrate (B. subtilis): grew
- maximum growth of B. coagulans strain GBI-30 on the carbohydrate [1]: strong growth
